Source: patent publication US20260021186A1, “Fatty Acid-D-Amino Acid Peptides Conjugates as Anaplerotic Compounds for Use in Treating Propionic Acidemia, Methylmalonic Acidurias, and Energy Metabolic Disorders” (University of Pittsburgh - Of the Commonwealth System of …, priority 2022, published 2026)

System: PA patient cells, Fb859
Experiment: Measurement of mitochondrial respiration (Seahorse XF MitoStress test, OCR)
Format: cell-based, human
Details: FIGS. 12A-12D; 30 μM and 90 μM for 72 h
Description: Measurement of Mitochondrial Respiration Seahorse: Fb859 cells were grown in regular DMEM media until 85-90% confluency. The cells were harvested and seeded at a concentration of 25,000 cells/80 μl (n=8 replicates) in poly-D lysine coated XFe seahorse 96well plate in regular DMEM media and incubated overnight at 37° C. in a 5% CO2 incubator. Following day, the culture media was replaced in designated wells with the following for 72 h:180 μl of Specialty Media A (seahorse XFDMEM base media+10% fat stripped FBS+Glucose+sodium pyruvate+L-glutamine+0.5 mM carnitine). 180 μl of Specialty Media B (scahorse XFDMEM base media+10% stripped FBS+0.5 mM carnitine and no added glucose, sodium pyruvate or glutamine). 180 μl of Specialty media B containing experimental compounds. After 72 h incubation the Specialty media A & B was replaced in respective designated wells with 180 μL Seahorse XF DMEM base media containing glucose, sodium pyruvate. […] OCR was determined (Seahorse XF MitoStress test). Finally, cells were lysed, and protein content was determined. […]
Measurement of Mitochondrial Respiration: Control Fb826 and Patient Fb859 cells were grown in regular DMEM media without adding extra glutamine until 85-90% confluency. […] Oxygen consumption rate (OCR) was determined (Seahorse XF MitoStress test). Finally, cells were lysed, and protein content was determined. […]

With C[C@@H](NC(=O)CCCCC(=O)O)C(=O)N[C@H](Cc1c[nH]cn1)C(=O)O [PMA010, 6-(((R)-1-(((R)-1-carboxy-2-(1H-imidazol-4-yl)ethyl)amino)-1-oxopropan-2-yl)amino)-6-oxohexanoic acid] the “oxygen consumption parameters compared to individual components D-Serine and D-Histidine” value was “improved”.
